Measured values: paper PMC12390655 (Viruses, 2025)
Ends that are not written are not given here.

How the values were obtained:
[1] = molecular target: monopartite NLS peptide (mpNLS) from the SV40 large T antigen (SV40); assay: fluorescence polarisation
eVP24–KPNA5-ΔIBB complex = eVP24–KPNA5-ΔIBB complex (Homo sapiens, UniProt O15131); assay: biochemical; format: binding, Human KPNA5; Ebola VP24

Substance | Kd [1] [µM] | Kd (eVP24–KPNA5-ΔIBB complex) [µM]
Human KPNA5 aa 66–508 (KPNA5-ΔIBB) (domain or fragment) | 5.3 | –
STPPKKKRKVE [mpNLS] | – | 5.2
KRPAATKKAGQAKKKK [bpNLS] | – | 0.21
